{"source": "patent US6524625B2", "about": "“Physiologically active extract obtained from indigo plant polygonum tinctorium” (Kabushiki Kaisha Hayashibara Seibutsu Kagaku Kenkyuto, priority 1998, dated 2003)", "key": {"[1]": {"tested_on": "C6 cells", "assay": "Apoptosis controlling action, propidium iodide flow cytometry", "assay_type": "cell-based, rat", "details": "C6 cells (1 × 10^5 cells/ml)", "protocol": "The solution was distributed to a microplate in one milliliter per well, and the solution in each well was diluted in series with a fresh preparation of the same medium as used in the above.\nHL-60 cells, ATCC CCL-240, derived from a patient with acute promyelocytic leukemia; U-937 cells, ATCC CRL-1593.2, derived from a patient with human histiocytic lymphoma; HGC-27 cells, RCB0500, derived from a patient with gastric cancer; HLC-1 cells, RCB0083, derived from a patient with lung adenocarcinoma; and C6 cells, ATCC CCL-107, derived from rat glial tumor, were respectively suspended in RPMI1640 medium (pH 7.2) to give a cell density of 1×10^6 cells/ml or 2×10^5 cells/ml. To the microplate, containing a one milliliter dilution of 20, 10 or 5.0 μg/ml of Compound 1, was added one milliliter per well of either of the above cell suspensions and used for test systems. All the test systems were made duplex and respectively subjected to 24- and 48-hour incubations in a 5 v/v % CO2 incubator at 37° C. A system free of Compound 1 was provided and treated similarly as above and used for control.\nAccording to the method by I. Nicoletti et al. in Journal of Immunological Methods, Vol. 139, pp. 271-279 (1991), the apoptosis-induced cells in the test systems and control were stained by propidium iodide and determined for the percentage of the stained cells to the total cells in such a manner that transferring each of the cultures to polypropylene tubes, centrifuging the tubes, removing the resulting supernatants, washing the cells' sediments with phosphate buffered saline containing 0.3 v/v % calf serum albumin, and further centrifuging the washed cells to remove supernatants. The newly formed sediments were respectively mixed with 50 μg/ml of propidium iodide commercialized by Sigma Chemical Company, St. Louis, Mo., USA, 0.1 w/v % sodium citrate, and0.1 w/v % “TRITON X-100”, a surfactant commercialized by Sigma Chemical Company, St. Louis, Mo., USA, in respective volumes of 1.5 ml to stain the cells by propidium iodide. The stained cells were stored at 4° C. in the dark overnight. The stained cells of each test system were analyzed on “EPICS PROFILE II”, a flow cytometry commercialized by Beckman Coulter, Inc., CA, USA. Based on the data the percentage of the stained cells to the total cells in each test system was measured for apoptosis occurrence."}, "[2]": {"tested_on": "HL-60 cells, HGC-27 cells, HLC-1 cells", "assay": "Antitumor action, comparison over the tumor cells of Table 10", "assay_type": "cell-based, human", "details": "from the 50% growth inhibitory concentrations of Table 10", "description": "Solutions in each well were serially diluted with a fresh preparation of the same RPMI1640 medium (pH 7.2) as used in the above.\nHL-60 cells (ATCC CCL-240) derived from a patient with acute promyelocytic leukemia, HGC-27 cells (RCB0500) derived from a patient with gastric cancer, and HLC-1 cells (RCB0083) derived from a patient with lung adenocarcinoma were respectively suspended in fresh preparations of the same RPMI1640 medium (pH 7.2) as used in the above to give respective cell concentrations of 4×10^5 cells/ml, 4×10^5 cells/ml, and 2×10^6 cells/ml. Each cell suspension was distributed to a microplate in a volume of 50 μl/well and incubated at 37° C. for 48 hours in a 5 v/v % CO2 incubator. To each microplate, a 25 v/v % aqueous glutaraldehyde solution was added in a volume of 20 μl/well, and the microplate was allowed to stand for 15 min to fix the cells. Then, the cells adhered to the wells were washed with water, admixed with a 0.05 w/v % aqueous methylene blue solution in a volume of 100 μl/well, and further allowed to stand for 15 min to stain the cells. Thereafter, an excessive amount of the staining solution was removed from the wells by washing with water, and the cells were dried, admixed with 300 μl/well of 0.33 N hydrochloric acid, stirred sufficiently, and measured for absorption at a wavelength of 620 nm. […]"}}}
{"smiles": "O=C1c2ccccc2-n2c1nc1ccccc1c2=O", "note": "[Compound 1, 6,12-dihydro-6,12-dioxoindolo[2,1-b]quinazoline]", "values": [{"measurement": "Apoptosis occurrence", "setting": "[1]; 24 hours, 2.5 μg/ml, control 0.3", "result": 15.9, "unit": "%"}, {"measurement": "Apoptosis occurrence", "setting": "[1]; 24 hours, 5.0 μg/ml, control 0.3", "result": 18.4, "unit": "%"}, {"measurement": "Apoptosis occurrence", "setting": "[1]; 24 hours, 10 μg/ml, control 0.3", "result": 27.6, "unit": "%"}, {"measurement": "Apoptosis occurrence", "setting": "[1]; 48 hours, 2.5 μg/ml, control 0.4", "result": 38.4, "unit": "%"}, {"measurement": "Apoptosis occurrence", "setting": "[1]; 48 hours, 5.0 μg/ml, control 0.4", "result": 64.8, "unit": "%"}, {"measurement": "Apoptosis occurrence", "setting": "[1]; 48 hours, 10 μg/ml, control 0.4", "result": 67.1, "unit": "%"}, {"measurement": "Antitumor action relative to Compound 2", "setting": "[2]", "result": "≥ 10", "unit": "times"}]}
